Laboratory results: patent publication US20210038607A1, “OXADIAZOLYLTHIOPHENE DERIVATIVES USEFUL AS HISTONE DEACETYLASE INHIBITORS” (Karus Therapeutics Limited, priority 2018, published 2021)

How the values were obtained:
[1] = target: T1, Human HDAC1 (Homo sapiens, UniProt Q13547); assay: HDAC1 biochemical assay, AMC-labeled peptide substrate; conditions: read-out: HDAC Isoform IC50 (nM) 1
T1 construct: full length with C-terminal His-tag and C-terminal FLAG-tag; His (C); FLAG (C); host or cells: baculovirus expression system
T1 sequence (Q13547 whole entry, canonical isoform): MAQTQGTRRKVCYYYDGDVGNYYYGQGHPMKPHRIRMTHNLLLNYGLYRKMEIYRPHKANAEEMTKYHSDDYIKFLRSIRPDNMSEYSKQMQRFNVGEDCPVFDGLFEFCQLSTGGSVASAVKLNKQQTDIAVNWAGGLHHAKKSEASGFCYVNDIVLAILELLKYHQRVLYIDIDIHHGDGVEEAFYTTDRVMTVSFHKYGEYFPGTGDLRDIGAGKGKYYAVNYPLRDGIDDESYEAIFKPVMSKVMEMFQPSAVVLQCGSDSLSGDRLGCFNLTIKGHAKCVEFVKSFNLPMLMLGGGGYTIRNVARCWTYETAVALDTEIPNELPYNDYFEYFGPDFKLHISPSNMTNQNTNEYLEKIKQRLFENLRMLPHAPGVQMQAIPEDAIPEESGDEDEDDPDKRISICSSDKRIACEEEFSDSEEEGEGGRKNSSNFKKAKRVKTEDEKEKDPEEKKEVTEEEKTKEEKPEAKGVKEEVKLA
Procedure, shortened: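 Baculovirus-expressed full-length human HDAC1 with His and FLAG tags, 0.3 ng/ul, incubated 1 h at 30° C with compound and 50 μM RHKK(Ac)AMC in Tris pH 8.0 buffer with BSA and 1% DMSO. Developer then releases AMC from deacetylated substrate; fluorescence read at 360/460 nm.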

[2] = target: T2, Human HDAC4 (Homo sapiens, UniProt P56524); assay: HDAC4 biochemical assay, class IIa-specific substrate; conditions: read-out: HDAC Isoform IC50 (nM) 4
T2 construct: amino acids 627-1085 with N-terminal GST tag; GST (N); host or cells: baculovirus expression system
T2 sequence (P56524 627-1084 limits assumed): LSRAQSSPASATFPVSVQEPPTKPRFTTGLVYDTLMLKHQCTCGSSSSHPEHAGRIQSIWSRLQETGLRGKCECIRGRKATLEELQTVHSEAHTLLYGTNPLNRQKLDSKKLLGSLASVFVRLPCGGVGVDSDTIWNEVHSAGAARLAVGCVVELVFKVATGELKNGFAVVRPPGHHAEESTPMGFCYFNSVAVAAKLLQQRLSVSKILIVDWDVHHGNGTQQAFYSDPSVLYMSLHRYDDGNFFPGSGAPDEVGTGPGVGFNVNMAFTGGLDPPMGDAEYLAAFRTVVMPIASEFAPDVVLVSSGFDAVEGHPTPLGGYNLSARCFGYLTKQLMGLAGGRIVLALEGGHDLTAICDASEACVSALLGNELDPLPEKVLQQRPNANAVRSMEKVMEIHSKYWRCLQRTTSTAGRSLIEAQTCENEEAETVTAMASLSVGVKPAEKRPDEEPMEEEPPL
Procedure, shortened: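 GST-tagged human HDAC4 (aa 627-1085, baculovirus) at 0.004 ng/ul was incubated 30 min at room temperature with 50 μM class IIa-specific substrate BOC-Lys(trifluoroacetyl)-AMC in Tris-HCl pH 8.0 buffer with BSA, 1% DMSO. Developer then released AMC, read at 360/460 nm.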

[3] = target: T3, Human HDAC5 (Homo sapiens, UniProt Q9UQL6); assay: HDAC5 biochemical assay, class IIa-specific substrate; conditions: read-out: HDAC Isoform IC50 (nM) 5
T3 construct: full length with C-terminal His tag, MW=51.1 kDa; His (C); host or cells: baculovirus expression system
T3 sequence (Q9UQL6 656-1122 limits assumed): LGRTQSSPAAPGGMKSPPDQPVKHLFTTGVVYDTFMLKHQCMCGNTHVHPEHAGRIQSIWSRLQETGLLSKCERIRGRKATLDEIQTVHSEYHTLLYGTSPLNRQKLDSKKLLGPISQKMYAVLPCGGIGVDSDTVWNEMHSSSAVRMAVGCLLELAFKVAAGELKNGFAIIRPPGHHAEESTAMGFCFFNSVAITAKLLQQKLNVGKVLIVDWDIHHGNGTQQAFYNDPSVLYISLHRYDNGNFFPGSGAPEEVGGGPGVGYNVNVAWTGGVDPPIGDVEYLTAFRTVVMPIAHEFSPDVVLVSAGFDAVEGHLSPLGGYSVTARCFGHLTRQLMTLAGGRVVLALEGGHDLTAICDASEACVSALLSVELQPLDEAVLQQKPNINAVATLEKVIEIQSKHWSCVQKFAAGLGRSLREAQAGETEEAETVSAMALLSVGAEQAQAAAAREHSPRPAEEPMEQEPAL
Procedure, shortened: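 Full-length C-terminal His-tagged HDAC5 from baculovirus (0.05 ng/ul) incubated 30 min at room temperature with 50 μM Boc-Lys(trifluoroacetyl)-AMC and compound, Tris pH 8.0 buffer with BSA, 1% DMSO. Developer then releases AMC; fluorescence 360/460 nm.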

[4] = target: T4, Recombinant human HDAC6 (Homo sapiens, UniProt Q9UBN7); assay: HDAC6 biochemical assay, AMC-labeled peptide substrate; conditions: HDAC6; read-out: HDAC Isoform IC50 (nM) 6
T4 construct: full length, MW=159 kDa; GST (N); host or cells: Sf9 insect cells (baculovirus)
T4 sequence (Q9UBN7 1-1215): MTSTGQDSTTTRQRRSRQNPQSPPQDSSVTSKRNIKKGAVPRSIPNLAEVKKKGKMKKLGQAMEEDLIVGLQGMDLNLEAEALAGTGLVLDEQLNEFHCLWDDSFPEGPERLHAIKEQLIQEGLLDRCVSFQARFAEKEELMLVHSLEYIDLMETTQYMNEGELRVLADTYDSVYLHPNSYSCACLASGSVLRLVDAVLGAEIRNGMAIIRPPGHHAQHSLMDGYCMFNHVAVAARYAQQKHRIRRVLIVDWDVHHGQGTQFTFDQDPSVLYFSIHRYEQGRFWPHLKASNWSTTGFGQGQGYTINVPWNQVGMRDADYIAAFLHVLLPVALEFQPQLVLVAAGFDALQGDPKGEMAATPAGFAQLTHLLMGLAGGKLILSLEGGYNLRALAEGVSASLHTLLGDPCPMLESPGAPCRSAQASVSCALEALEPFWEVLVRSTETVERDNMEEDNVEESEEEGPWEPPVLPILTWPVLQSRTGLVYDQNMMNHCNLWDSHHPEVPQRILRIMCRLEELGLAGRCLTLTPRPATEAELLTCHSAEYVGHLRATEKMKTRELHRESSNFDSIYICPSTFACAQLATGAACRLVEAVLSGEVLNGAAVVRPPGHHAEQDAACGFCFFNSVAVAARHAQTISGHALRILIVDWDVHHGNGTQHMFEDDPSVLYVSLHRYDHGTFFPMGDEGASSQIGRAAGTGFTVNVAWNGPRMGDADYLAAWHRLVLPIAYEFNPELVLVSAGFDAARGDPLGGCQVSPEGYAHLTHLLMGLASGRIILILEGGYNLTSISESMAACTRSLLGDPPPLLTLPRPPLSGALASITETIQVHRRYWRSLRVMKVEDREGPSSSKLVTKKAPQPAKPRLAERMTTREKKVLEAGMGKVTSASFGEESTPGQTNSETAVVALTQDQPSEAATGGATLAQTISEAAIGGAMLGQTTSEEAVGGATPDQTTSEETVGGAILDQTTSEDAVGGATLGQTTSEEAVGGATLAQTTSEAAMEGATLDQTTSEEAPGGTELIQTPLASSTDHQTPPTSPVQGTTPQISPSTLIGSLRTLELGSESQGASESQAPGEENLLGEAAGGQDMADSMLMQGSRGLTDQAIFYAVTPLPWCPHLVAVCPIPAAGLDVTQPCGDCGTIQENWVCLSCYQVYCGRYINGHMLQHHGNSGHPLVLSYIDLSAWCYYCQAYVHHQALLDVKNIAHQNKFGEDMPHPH
Procedure, shortened: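 Two-step fluorogenic read-out: enzyme deacetylates 50 μM RHKK(Ac)AMC for 1 h at 30° C in pH 8.0 Tris buffer with BSA and 1% DMSO, then developer cleavage gives signal at Ex 360/Em 460. Enzyme: 0.3 ng/ul recombinant full-length human HDAC6, GST-tagged, Sf9-expressed.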

[5] = target: T5, Human HDAC7 (Homo sapiens, UniProt Q8WUI4); assay: HDAC7 biochemical assay, class IIa-specific substrate; conditions: read-out: HDAC Isoform IC50 (nM) 7
T5 construct: (a.a. 518-end) with N-terminal GST tag; GST (N); host or cells: baculovirus expression system
T5 sequence (Q8WUI4 518-952 limits assumed): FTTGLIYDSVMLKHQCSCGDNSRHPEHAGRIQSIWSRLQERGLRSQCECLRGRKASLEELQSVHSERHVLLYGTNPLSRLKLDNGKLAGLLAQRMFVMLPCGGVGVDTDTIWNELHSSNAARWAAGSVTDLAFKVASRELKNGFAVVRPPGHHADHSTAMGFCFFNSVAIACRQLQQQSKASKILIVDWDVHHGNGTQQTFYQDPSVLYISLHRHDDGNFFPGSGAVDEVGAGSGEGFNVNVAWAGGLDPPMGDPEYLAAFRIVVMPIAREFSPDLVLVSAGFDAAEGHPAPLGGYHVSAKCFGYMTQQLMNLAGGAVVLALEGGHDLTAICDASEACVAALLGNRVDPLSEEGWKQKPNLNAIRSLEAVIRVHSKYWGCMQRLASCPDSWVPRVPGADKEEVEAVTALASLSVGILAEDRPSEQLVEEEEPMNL
Procedure, shortened: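 GST-tagged HDAC7 (a.a. 518-end, baculovirus-expressed) at 0.001 ng/ul with 50 μM Boc-Lys(trifluoroacetyl)-AMC substrate, 30 min at room temperature in pH 8.0 Tris buffer with BSA, 1% DMSO final. Developer then releases AMC; fluorescence read at 360/460 nm.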

[6] = target: T6, Human HDAC9 (Homo sapiens, UniProt Q9UKV0); assay: HDAC9 biochemical assay, class IIa-specific substrate; conditions: read-out: HDAC Isoform IC50 (nM) 9
T6 construct: amino acids 604-1066 with C-terminal His tag; His (C); host or cells: baculovirus expression system
T6 sequence (Q9UKV0 604-1066 isoform Q9UKV0-5): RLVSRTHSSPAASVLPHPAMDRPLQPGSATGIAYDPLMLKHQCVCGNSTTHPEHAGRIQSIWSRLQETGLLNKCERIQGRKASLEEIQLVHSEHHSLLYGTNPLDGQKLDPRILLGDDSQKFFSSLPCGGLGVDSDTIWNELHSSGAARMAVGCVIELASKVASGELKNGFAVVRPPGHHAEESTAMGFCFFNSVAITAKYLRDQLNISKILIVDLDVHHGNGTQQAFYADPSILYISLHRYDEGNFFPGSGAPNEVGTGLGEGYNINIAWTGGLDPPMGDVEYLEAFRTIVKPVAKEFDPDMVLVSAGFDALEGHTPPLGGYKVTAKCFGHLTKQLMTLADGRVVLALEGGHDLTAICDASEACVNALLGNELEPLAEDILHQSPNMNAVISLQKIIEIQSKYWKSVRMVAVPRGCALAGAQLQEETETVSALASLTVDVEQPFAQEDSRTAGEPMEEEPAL
Procedure, shortened: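 HDAC9 residues 604-1066 (C-terminal His tag, baculovirus-expressed) at 0.06 ng/ul with 50 μM class IIa substrate Boc-Lys(trifluoroacetyl)-AMC in Tris-HCl pH 8.0 buffer with BSA and 1% DMSO. 30 min at room temperature, then developer added; fluorescence read at 360/460 nm Ex/Em.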

| SMILES | IC50 [1] [nM] | IC50 [2] [nM] | IC50 [3] [nM] | IC50 [4] [nM] | IC50 [5] [nM] | IC50 [6] [nM] |
| --- | --- | --- | --- | --- | --- | --- |
| COc1ncc(N(Cc2ccc(-c3noc(C(F)(F)F)n3)s2)c2cnccn2)nc1OC [Example BW, 5,6-Dimethoxy-N-(pyrazin-2-yl)-N-({5-[5-(trifluoromethyl)-1,2,4-oxadiazol-3-yl]thiophen-2-yl}methyl)pyrazin-2-amine] | > 10000 | ≤ 10000 | ≤ 10000 | ≤ 10000 | ≤ 10000 | ≤ 10000 |
| CN(C)c1nccc(N(Cc2ccc(-c3noc(C(F)(F)F)n3)s2)c2cnccn2)n1 [Example CC, N2,N2-Dimethyl-N4-(pyrazin-2-yl)-N4-({5-[5-(trifluoromethyl)-1,2,4-oxadiazol-3-yl]thiophen-2-yl}methyl)pyrimidine-2,4-diamine] | > 10000 | ≤ 10000 | ≤ 10000 | ≤ 10000 | ≤ 10000 | ≤ 10000 |
| CN(C)c1cc(N(Cc2ccc(-c3noc(C(F)(F)F)n3)s2)c2cnccn2)ncn1 [Example CI, N4,N4-Dimethyl-N6-(pyrazin-2-yl)-N6-({5-[5-(trifluoromethyl)-1,2,4-oxadiazol-3-yl]thiophen-2-yl}methyl)pyrimidine-4,6-diamine] | ≤ 10000 | ≤ 10000 | ≤ 10000 | ≤ 10000 | ≤ 10000 | ≤ 10000 |
| FC(F)(F)c1nc(-c2ccc(CN(c3ccc(N4CCOCC4)cn3)c3cnccn3)s2)no1 [Example AD, N-[5-(Morpholin-4-yl)pyridin-2-yl]-N-({5-[5-(trifluoromethyl)-1,2,4-oxadiazol-3-yl]thiophen-2-yl}methyl)pyrazin-2-amine] | ≤ 10000 | ≤ 10000 | ≤ 10000 | ≤ 10000 | ≤ 10000 | ≤ 10000 |
| FC(F)(F)c1nc(-c2ccc(CN(c3cnccn3)c3ccc(-c4ccccc4)nn3)s2)no1 [Example DN, 6-Phenyl-N-(pyrazin-2-yl)-N-({5-[5-(trifluoromethyl)-1,2,4-oxadiazol-3-yl]thiophen-2-yl}methyl)pyridazin-3-amine] | ≤ 10000 | ≤ 1000 | ≤ 500 | ≤ 500 | ≤ 500 | ≤ 10000 |
| FC(F)(F)c1nc(-c2ccc(CN(c3cnccn3)c3ccc4ncccc4n3)s2)no1 [Example X, N-(Pyrazin-2-yl)-N-({5-[5-(trifluoromethyl)-1,2,4-oxadiazol-3-yl]thiophen-2-yl}methyl)-1,5-naphthyridin-2-amine] | > 10000 | ≤ 500 | ≤ 1000 | ≤ 1000 | ≤ 1000 | ≤ 1000 |

Next, values leading:

| IC50 [1] [nM] | IC50 [2] [nM] | IC50 [3] [nM] | IC50 [4] [nM] | IC50 [5] [nM] | IC50 [6] [nM] | SMILES |
| --- | --- | --- | --- | --- | --- | --- |
| > 10000 | ≤ 10000 | ≤ 10000 | ≤ 1000 | ≤ 10000 | ≤ 10000 | O=C(O)c1ccc(N(Cc2ccc(-c3noc(C(F)(F)F)n3)s2)c2cnccn2)nn1 [Example DP, 6-[(Pyrazin-2-yl)({5-[5-(trifluoromethyl)-1,2,4-oxadiazol-3-yl]thiophen-2-yl}methyl)amino]pyridazine-3-carboxylic acid] |
| > 10000 | ≤ 10000 | ≤ 1000 | ≤ 10000 | ≤ 10000 | ≤ 10000 | FC(F)(F)c1cnnc(N(Cc2ccc(-c3noc(C(F)(F)F)n3)s2)c2cccnc2)c1 [Example EI, N-(Pyridin-3-yl)-5-(trifluoromethyl)-N-({5-[5-(trifluoromethyl)-1,2,4-oxadiazol-3-yl]thiophen-2-yl}methyl)pyridazin-3-amine] |
| > 10000 | ≤ 1000 | ≤ 1000 | ≤ 10000 | ≤ 1000 | ≤ 10000 | FC(F)(F)c1ncc(N(Cc2ccc(-c3noc(C(F)(F)F)n3)s2)c2cnccn2)cn1 [Example CV, N-(Pyrazin-2-yl)-2-(trifluoromethyl)-N-({5-[5-(trifluoromethyl)-1,2,4-oxadiazol-3-yl]thiophen-2-yl}methyl)pyrimidin-5-amine] |
| > 10000 | ≤ 10000 | ≤ 1000 | ≤ 1000 | ≤ 10000 | ≤ 10000 | FC(F)(F)c1cnnc(N(Cc2ccc(-c3noc(C(F)(F)F)n3)s2)c2ccncn2)c1 [Example EL, N-(Pyrimidin-4-yl)-5-(trifluoromethyl)-N-({5-[5-(trifluoromethyl)-1,2,4-oxadiazol-3-yl]thiophen-2-yl}methyl)pyridazin-3-amine] |
| > 10000 | ≤ 10000 | ≤ 10000 | ≤ 10000 | ≤ 10000 | ≤ 10000 | Cn1ccc2c(N(Cc3ccc(-c4noc(C(F)(F)F)n4)s3)c3cnccn3)ncnc21 [Example CM, N-{7-Methyl-7H-pyrrolo[2,3-d]pyrimidin-4-yl}-N-({5-[5-(trifluoromethyl)-1,2,4-oxadiazol-3-yl]thiophen-2-yl}methyl)pyrazin-2-amine] |
| ≤ 10000 | ≤ 500 | ≤ 1000 | ≤ 1000 | ≤ 1000 | ≤ 1000 | FC(F)(F)c1nc(-c2ccc(CN(c3cnccn3)c3ccc(-n4cccn4)nn3)s2)no1 [Example DM, N-(Pyrazin-2-yl)-6-(1H-pyrazol-1-yl)-N-({5-[5-(trifluoromethyl)-1,2,4-oxadiazol-3-yl]thiophen-2-yl}methyl)pyridazin-3-amine] |
